Assay results reported in ChEMBL document CHEMBL1629662, “Antimicrobial activity of prulifloxacin tested against a worldwide collection of gastroenteritis-producing pathogens, including those causing traveler's diarrhea” (2009).
In brackets after ≈: the same amount, converted by molar mass.

Key:
Plesiomonas shigelloides [1] = test: Antibacterial activity against Plesiomonas shigelloides assessed as growth inhibition at 0.004 ug/ml by broth microdilution method; format: functional
Vibrio alginolyticus = test: Antibacterial activity against Vibrio alginolyticus assessed as percent susceptible isolates by broth microdilution method; format: functional
Aeromonas sobria [2] = test: Antibacterial activity against Aeromonas sobria assessed as percent resistant isolates by broth microdilution method; format: functional
Escherichia coli [3] = test: Antibacterial activity against Escherichia coli by broth microdilution method in presence of sulfamethoxazolee; format: functional
Escherichia coli [4] = test: Antibacterial activity against Escherichia coli by broth microdilution method; format: functional
Yersinia sp. [5] = test: Antibacterial activity against Yersinia sp. assessed as growth inhibition at 0.004 ug/ml by broth microdilution method; format: functional; settings: Yersinia sp. (in: enterobacteria)
Salmonella typhimurium = test: Antibacterial activity against Salmonella enterica serovar Typhimurium assessed as percent resistant isolates by broth microdilution method; format: functional, Salmonella enterica subsp. enterica serovar Typhimurium; settings: pooled result: one value given for 8 cell lines, strains, targets or settings
Aeromonas sp. [6] = test: Antibacterial activity against Aeromonas sp. assessed as growth inhibition at 0.03 ug/ml by broth microdilution method; format: functional
Aeromonas sp. [7] = test: Antibacterial activity against Aeromonas sp. assessed as growth inhibition at =>4 ug/ml by broth microdilution method; format: functional
Plesiomonas shigelloides [8] = test: Antibacterial activity against Plesiomonas shigelloides by broth microdilution method; format: functional
Salmonella sp. [9] = test: Antibacterial activity against Salmonella sp. assessed as growth inhibition at 0.004 ug/ml by broth microdilution method; format: functional
Aeromonas veronii = test: Antibacterial activity against Aeromonas veronii assessed as percent susceptible isolates by broth microdilution method; format: functional
Salmonella typhi = test: Antibacterial activity against Salmonella enterica serovar Typhi by broth microdilution method; format: functional, Salmonella enterica subsp. enterica serovar Typhi
Escherichia coli [10] = test: Antibacterial activity against Escherichia coli assessed as growth inhibition at 0.06 ug/ml by broth microdilution method; format: functional
Shigella sonnei [11] = test: Antibacterial activity against Shigella sonnei assessed as percent resistant isolates by broth microdilution method; format: functional; settings: pooled result: one value given for 4 cell lines, strains, targets or settings
Salmonella enteritidis [12] = test: Antibacterial activity against Salmonella enterica serovar Enteritidis by broth microdilution method; format: functional, Salmonella enterica subsp. enterica serovar Enteritidis
Escherichia coli [13] = test: Antibacterial activity against Escherichia coli assessed as growth inhibition at 0.008 ug/ml by broth microdilution method; format: functional
Salmonella enteritidis [14] = test: Antibacterial activity against Salmonella enterica serovar Enteritidis assessed as percent susceptible isolates by broth microdilution method; format: functional, Salmonella enterica subsp. enterica serovar Enteritidis; settings: pooled result: one value given for 5 cell lines, strains, targets or settings
Campylobacter sp. [15] = test: Antibacterial activity against Campylobacter sp. assessed as growth inhibition at =<0.002 ug/ml by broth microdilution method; format: functional
Salmonella sp. [16] = test: Antibacterial activity against Salmonella sp. assessed as growth inhibition at 0.12 ug/ml by broth microdilution method; format: functional
Escherichia coli [17] = test: Antibacterial activity against enterotoxigenic Escherichia coli by broth microdilution method; format: functional
Vibrio parahaemolyticus [18] = test: Antibacterial activity against Vibrio parahaemolyticus by broth microdilution method; format: functional
Escherichia coli [19] = test: Antibacterial activity against Escherichia coli assessed as growth inhibition at 0.016 ug/ml by broth microdilution method; format: functional
Aeromonas sobria [20] = test: Antibacterial activity against Aeromonas sobria by broth microdilution method; format: functional
Escherichia coli [21] = test: Antibacterial activity against Escherichia coli assessed as growth inhibition at 0.12 ug/ml by broth microdilution method; format: functional
Plesiomonas shigelloides [22] = test: Antibacterial activity against Plesiomonas shigelloides assessed as percent resistant isolates by broth microdilution method; format: functional
Shigella sonnei [23] = test: Antibacterial activity against Shigella sonnei by broth microdilution method; format: functional
Vibrio vulnificus = test: Antibacterial activity against Vibrio vulnificus by broth microdilution method; format: functional
Escherichia coli [24] = test: Antibacterial activity against Escherichia coli assessed as growth inhibition at 0.03 ug/ml by broth microdilution method; format: functional
Aeromonas caviae = test: Antibacterial activity against Aeromonas caviae assessed as percent resistant isolates by broth microdilution method; format: functional
Plesiomonas shigelloides [25] = test: Antibacterial activity against Plesiomonas shigelloides assessed as growth inhibition at =<0.002 ug/ml by broth microdilution method; format: functional
Vibrio parahaemolyticus [26] = test: Antibacterial activity against Vibrio parahaemolyticus assessed as percent susceptible isolates by broth microdilution method; format: functional
Shigella sp. [27] = test: Antibacterial activity against Shigella sp. assessed as growth inhibition at 0.004 ug/ml by broth microdilution method; format: functional
Salmonella sp. [28] = test: Antibacterial activity against Salmonella sp. assessed as growth inhibition at 0.016 ug/ml by broth microdilution method; format: functional
[29] = Antibacterial activity against Salmonella enterica serovar Heidelberg by broth microdilution method; format: functional, Salmonella enterica subsp. enterica serovar Heidelberg
Campylobacter sp. [30] = test: Antibacterial activity against Campylobacter sp. assessed as growth inhibition at 1 ug/ml by broth microdilution method; format: functional
Campylobacter jejuni [31] = test: Antibacterial activity against Campylobacter jejuni by broth microdilution method; format: functional
[32] = Antibacterial activity against Salmonella enterica serovar Choleraesuis by broth microdilution method; format: functional, Salmonella enterica subsp. enterica serovar Choleraesuis
Campylobacter jejuni [33] = test: Antibacterial activity against Campylobacter jejuni assessed as percent resistant isolates by broth microdilution method; format: functional; settings: pooled result: one value given for 2 cell lines, strains, targets or settings
Escherichia coli [34] = test: Antibacterial activity against Escherichia coli assessed as percent susceptible isolates by broth microdilution method; format: functional
Yersinia sp. [35] = test: Antibacterial activity against Yersinia sp. assessed as growth inhibition at 0.008 ug/ml by broth microdilution method; format: functional; settings: Yersinia sp. (in: enterobacteria)
Shigella sp. [36] = test: Antibacterial activity against Shigella sp. assessed as growth inhibition at 0.12 ug/ml by broth microdilution method; format: functional

Structure (SMILES): CC1Sc2c(C(=O)O)c(=O)c3cc(F)c(N4CCNCC4)cc3n21 (stereo not drawn) [ULIFLOXACIN]
- inhibition at 0.004 µg/mL (Plesiomonas shigelloides [1]): 75%
- Activity (Vibrio alginolyticus): 100%
- Activity (Aeromonas sobria [2]): 2%
- Activity (Escherichia coli [3]): 4.8%
- MIC50 (Escherichia coli [4]): 8 ng/mL (≈ 0.0229 µM)
- MIC90 (Escherichia coli [4]): 8 ng/mL (≈ 0.0229 µM)
- inhibition at 0.004 µg/mL (Yersinia sp. [5]): 0%
- Activity (Salmonella typhimurium): 0%
- inhibition at 0.03 µg/mL (Aeromonas sp. [6]): 87%
- inhibition (INH) (Aeromonas sp. [7]): 100%
- MIC (Plesiomonas shigelloides [8]): 4 ng/mL (≈ 0.0114 µM)
- MIC50 (Plesiomonas shigelloides [8]): 4 ng/mL (≈ 0.0114 µM)
- inhibition at 0.004 µg/mL (Salmonella sp. [9]): 10%
- Activity (Aeromonas veronii): 98%
- MIC50 (Salmonella typhi): 8 ng/mL (≈ 0.0229 µM)
- MIC90 (Salmonella typhi): 30 ng/mL (≈ 0.0859 µM)
- inhibition at 0.06 µg/mL (Escherichia coli [10]): 97%
- Activity (Shigella sonnei [11]): 0%
- MIC50 (Salmonella enteritidis [12]): 8 ng/mL (≈ 0.0229 µM)
- MIC90 (Salmonella enteritidis [12]): 30 ng/mL (≈ 0.0859 µM)
- inhibition at 0.008 µg/mL (Escherichia coli [13]): 93%
- Activity (Salmonella enteritidis [14]): 100%
- inhibition (INH) (Campylobacter sp. [15]): 0%
- inhibition at 0.12 µg/mL (Salmonella sp. [16]): 100%
- MIC (Escherichia coli [17]): 4 ng/mL (≈ 0.0114 µM)
- MIC50 (Escherichia coli [17]): 4 ng/mL (≈ 0.0114 µM)
- MIC90 (Escherichia coli [17]): 8 ng/mL (≈ 0.0229 µM)
- MIC (Escherichia coli [17]; Escherichia coli, read-out: MIC): 4 ng/mL (≈ 0.0114 µM)
- MIC50 (Escherichia coli [17]; Escherichia coli, read-out: MIC50): 4 ng/mL (≈ 0.0114 µM)
- MIC90 (Escherichia coli [17]; Escherichia coli, read-out: MIC90): 8 ng/mL (≈ 0.0229 µM)
- MIC50 (Vibrio parahaemolyticus [18]): 16 ng/mL (≈ 0.0458 µM)
- MIC90 (Vibrio parahaemolyticus [18]): 30 ng/mL (≈ 0.0859 µM)
- inhibition at 0.016 µg/mL (Escherichia coli [19]): 94%
- MIC50 (Aeromonas sobria [20]): 4 ng/mL (≈ 0.0114 µM)
- MIC90 (Aeromonas sobria [20]): 60 ng/mL (≈ 0.172 µM)
- inhibition at 0.12 µg/mL (Escherichia coli [21]): 97%
- Activity (Plesiomonas shigelloides [22]): 0%
- MIC50 (Shigella sonnei [23]): 4 ng/mL (≈ 0.0114 µM)
- MIC90 (Shigella sonnei [23]): 8 ng/mL (≈ 0.0229 µM)
- MIC50 (Vibrio vulnificus): 16 ng/mL (≈ 0.0458 µM)
- MIC90 (Vibrio vulnificus): 30 ng/mL (≈ 0.0859 µM)
- inhibition at 0.03 µg/mL (Escherichia coli [24]): 96%
- Activity (Aeromonas caviae): 2%
- inhibition (INH) (Plesiomonas shigelloides [25]): 0%
- Activity (Vibrio parahaemolyticus [26]): 100%
- inhibition at 0.004 µg/mL (Shigella sp. [27]): 62%
- inhibition at 0.016 µg/mL (Salmonella sp. [28]): 85%
- MIC50 [29]: 8 ng/mL (≈ 0.0229 µM)
- MIC90 [29]: 30 ng/mL (≈ 0.0859 µM)
- inhibition at 1 µg/mL (Campylobacter sp. [30]): 84%
- MIC50 (Campylobacter jejuni [31]): 30 ng/mL (≈ 0.0859 µM)
- MIC90 (Campylobacter jejuni [31]): > 2000 ng/mL
- MIC50 [32]: 8 ng/mL (≈ 0.0229 µM)
- MIC90 [32]: 30 ng/mL (≈ 0.0859 µM)
- Activity (Campylobacter jejuni [33]): 14.7%
- Activity (Escherichia coli [34]): 97%
- inhibition at 0.008 µg/mL (Yersinia sp. [35]): 56%
- inhibition at 0.12 µg/mL (Shigella sp. [36]): 100%
